Measurements published in US6677316B2, “Adenosine derivatives and methods of administration” (SmithKline Beecham Corporation, priority 1998, dated 2004).

Experiments:
[1] = biological target: T1, human adenosine A1 receptor (Homo sapiens, UniProt P30542); assay: Reporter gene assay (CRE/SPAP) in CHO cells, agonist potency relative to NECA, adenosine A1 receptor; format: cell-based; design: key: equipotent concentration ratio, NECA = 1; details: ECR = equipotent concentration ratio relative to NECA = 1, inhibition of forskolin-stimulated SPAP production
T1 construct: expressed in transfected cells; host or cells: Chinese hamster ovary (CHO) cells with CRE/SPAP/HYG reporter elements
T1 sequence (P30542 1-326): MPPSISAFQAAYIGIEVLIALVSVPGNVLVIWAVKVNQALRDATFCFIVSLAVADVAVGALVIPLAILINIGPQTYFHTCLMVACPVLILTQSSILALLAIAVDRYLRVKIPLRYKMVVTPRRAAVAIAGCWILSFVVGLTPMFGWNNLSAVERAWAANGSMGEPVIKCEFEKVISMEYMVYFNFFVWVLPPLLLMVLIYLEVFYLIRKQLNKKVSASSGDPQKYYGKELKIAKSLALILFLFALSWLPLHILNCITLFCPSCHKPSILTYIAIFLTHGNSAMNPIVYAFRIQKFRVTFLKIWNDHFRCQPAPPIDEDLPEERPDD
Description: (§1) Reporter Gene Experiments
(§2) Agonist activity was measured in Chinese hamster ovary (CHO) cells containing the CRE/SPAP/HYG (CRE=cyclic AMP response element; HYG=hygromycin resistance; SPAP=secreted placental alkaline phosphatase) reporter gene elements, which upon stimulation of cAMP levels produced SPAP. A cell line was used, which was stably transfected with either the human adenosine A1 receptor or the human adenosine A3 receptor in addition to the above elements. Cells were plated out in 96-well plates in culture medium and incubated at 37° C. for 1 hour. For measurement of potency, agonists were added to the appropriate wells at a concentration range of approximately 10^−10- 10^−5M. 15Min later, cAMP levels were stimulated by addition of a maximal concentration of forskolin. All cells were then incubated for a further 5 hours at 37° C., and cooled to room temperature, after which a substrate for the phosphatase (para-nitrophenol phosphate, pNPP), which is converted by SPAP to a coloured reagent) was then added and the 96-well -plates were read in a plate reader. From these readings, the concentration-dependence of the inhibition by the agonist for forskolin-stimulated SPAP production can be calculated. One of the agonists tested on each 96-well plate was the standard non-selective agonist, N-ethylcarboxamidoadenosine (NECA), and the potency of all test agonists is expressed relative to that of the NECA standard.
(§3) (ECR=equipotent concentration ratio relative to NECA=1)

[2] = biological target: T2, human adenosine A3 receptor (Homo sapiens, UniProt P0DMS8); assay: Reporter gene assay (CRE/SPAP) in CHO cells, agonist potency relative to NECA, adenosine A3 receptor; format: cell-based; design: key: equipotent concentration ratio, NECA = 1; details: ECR = equipotent concentration ratio relative to NECA = 1, inhibition of forskolin-stimulated SPAP production
T2 construct: expressed in transfected cells; host or cells: Chinese hamster ovary (CHO) cells with CRE/SPAP/HYG reporter elements
T2 sequence (P0DMS8 1-318): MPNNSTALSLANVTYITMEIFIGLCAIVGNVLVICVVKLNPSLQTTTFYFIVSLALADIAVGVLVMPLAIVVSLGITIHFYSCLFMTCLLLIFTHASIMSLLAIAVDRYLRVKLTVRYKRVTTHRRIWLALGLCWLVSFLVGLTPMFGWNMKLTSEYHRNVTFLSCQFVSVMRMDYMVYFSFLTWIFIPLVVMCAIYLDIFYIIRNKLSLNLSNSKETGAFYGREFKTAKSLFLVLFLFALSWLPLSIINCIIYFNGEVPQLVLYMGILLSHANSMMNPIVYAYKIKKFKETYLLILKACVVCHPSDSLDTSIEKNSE
Description: as §1, §2, §3

Compound	Adenosine A1 receptor ECR* [1]	Adenosine A3 receptor ECR* [2]
O[C@@H]1[C@H](O)[C@@H](c2nc(C3CC3)no2)O[C@H]1n1cnc2c(NC3CCOCC3)ncnc21 [Example 22, (2S,3S,4 R,5R)-2-(3-Cyclopropyl-[1,2,4]oxadiazol-5-yl)-5-[6-(tetrahydro-pyran4-ylamino)-purin-9-yl]-tetrahydro-furan-3,4-diol]	8.75	423
O[C@@H]1[C@H](O)[C@@H](c2nnc(C(F)(F)F)o2)O[C@H]1n1cnc2c(NC3CCCC3)ncnc21 [Example 178, (2R,3R,4S,5S)-2-[6-(cyclo-pentylamino)-9H-purin-9-yl]-5-[5-(trifluoromethyl)-1,3,4-oxadiazol-2-yl]-tetrahydrofuran-3,4-diol]	7.42	>471
CC(C)c1nnc([C@H]2O[C@@H](n3cnc4c(NC5CCOCC5)ncnc43)[C@H](O)[C@@H]2O)[nH]1 [Example 141, (2R,3S,4R,5R)-2-(5-isopropyl-4H-1,2,4-triazol-3-yl)-5-[6-(tetrahydro-2H-pyran-4-ylamino)-9H-purin-9-yl]tetrahydrofuran-3,4-diol]	12.08	228
CCOC(=O)N1CCC(Nc2ncnc3c2ncn3[C@@H]2O[C@H](c3nnc(C4CC4)o3)[C@@H](O)[C@H]2O)CC1 [Example 12, 4-{9-[5S-(5-Cyclopropyl-[1,3,4]oxadiazol-2-yl)-3R,4S-dihydroxy-tetrahydro-furan-2R-yl]-9H-purin-6-ylamino}-piperidine-1-carboxylic acid ethyl ester]	2.28	254
CC(C)c1nnc([C@H]2O[C@@H](n3cnc4c(Nc5ccc(F)cc5Cl)ncnc43)[C@H](O)[C@@H]2O)[nH]1 [Example 68, (2R,3R,4S,5R)-2-[6-(2-chloro-4-fluoroanilino)-9H-purin-9-yl]-5-(5-isopropyl-4H-1,2,4-triazol-3-yl)tetrahydrofuran-3,4-diol]	4.09	417.37
CCC(CC)Nc1nc(Cl)nc2c1ncn2[C@@H]1O[C@H](c2nc(C3CC3)no2)[C@@H](O)[C@H]1O.O=CO.O=CO [Example 133, (2R,3R,4S,5S)-2-{2-chloro-6-[(1-ethylpropyl)amino]-9H-purin-9-yl}-5-(3-cyclopropyl-1,2,4-oxadiazol-5-yl)tetrahydrofuran-3,4-diol formate (1:2)]	25.47	466.92
CCc1cc([C@H]2O[C@@H](n3cnc4c(N[C@H]5CCC[C@@H]5O)ncnc43)[C@H](O)[C@@H]2O)on1 [Example 136, (2S,3S,4R,5R)-2-(3-ethylisoxazol-5-yl)-5-(6-{[(1S,2S)-2-hydroxycyclopentyl]amino}-9H-purin-9-yl)tetrahydrofuran-3,4-diol]	1.95	–
Cc1cnc([C@H]2O[C@@H](n3cnc4c(Nc5ccc(F)cc5Cl)nc(Cl)nc43)[C@H](O)[C@@H]2O)o1 [Example 143, (2R,3R,4S,5S)-2-[2-chloro-6-(2-chloro-4-fluoroanilino)-9H-purin-9-yl]-5-(5-methyl-1,3-oxazol-2-yl)tetrahydrofuran-3,4-diol]	19.6	>74.1
CC(C)c1noc([C@H]2O[C@@H](n3cnc4c(NC5CC5)ncnc43)[C@H](O)[C@@H]2O)n1 [Example 51, (2R,3R,4S,5S)-2-[6-(cyclopropylamino)-9H-purin-9-yl]-5-(3-isopropyl-1,2,4-oxadiazol-5-yl)tetrahydrofuran-3,4-diol]	7.56	587.75
CC(C)(C)c1cc([C@H]2O[C@@H](n3cnc4c(NC5CCS(=O)(=O)CC5)ncnc43)[C@H](O)[C@@H]2O)on1 [Example 119, (2S,3S,4 R,5R)-2-[3-(tert-butyl)isoxazol-5-yl]-5-{6-[(1,1-dioxidotetrahydro-2H-thiopyran-4-yl)amino]-9H-purin-9-yl}tetrahydrofuran-3,4-diol]	2.83	154
CCOC(=O)N1CCC(Nc2ncnc3c2ncn3[C@@H]2O[C@H](c3cc(CC)no3)[C@@H](O)[C@H]2O)CC1 [Example 138, ethyl 4-({9-[(2R,3R,4S,5S)-5-(3-ethylisoxazol-5-yl)-3,4-dihydroxytetrahydrofuran-2-yl]-9H-purin-6-yl}amino)piperidine-1-carboxylate]	1.31	–
CCc1cc([C@H]2O[C@@H](n3cnc4c(NC5CCOCC5)ncnc43)[C@H](O)[C@@H]2O)on1 [Example 135, (2S,3S,4R,5R)-2-(3-ethylisoxazol-5-yl)-5-[6-(tetrahydro-2H-pyran-4-ylamino)-9H-purin-9-yl]tetrahydrofuran-3,4-diol]	0.48	–
O[C@@H]1[C@H](O)[C@@H](c2cc(C3CC3)no2)O[C@H]1n1cnc2c(Nc3ccc(Cl)cc3F)ncnc21 [Example 182, (2R,3R,4S,5S)-2-[6-(4-chloro-2-fluoroanilino)-9H-purin-9-yl]-5-(3-cyclopropyl-isoxazol-5-yl)-tetrahydrofuran-3,4-diol]	3.48	–
O[C@@H]1[C@H](O)[C@@H](c2nnc(C(F)(F)F)o2)O[C@H]1n1cnc2c(N[C@H]3CCC[C@@H]3O)ncnc21 [Example 179, (2R,3R,4S,5S)-2-(6-{[(1S,2S)-2-hydroxy-cyclopentyl]-amino}-9H-purin-9-yl)-5-[5-(trifluoromethyl)-1,3,4-oxadiazol-2-yl]-tetrahydrofuran-3,4-diol]	12.6	–
Cc1nnc([C@H]2O[C@@H](n3cnc4c(Nc5ccc(Cl)cc5F)ncnc43)[C@H](O)[C@@H]2O)o1 [Example 181]	8.57	–
CCCc1cc([C@H]2O[C@@H](n3cnc4c(Nc5ccc(Cl)cc5F)ncnc43)[C@H](O)[C@@H]2O)on1 [Example 145, (2R,3R,4S,5S)-2-[6-(4-chloro-2-fluoroanilino)-9H-purin-9-yl]-5-(3-propylisoxazol-5-yl)tetrahydrofuran-3,4-diol]	24.9	–
O[C@@H]1[C@H](O)[C@@H](c2cc(Br)no2)O[C@H]1n1cnc2c(Nc3ccc(Cl)cc3F)ncnc21 [Example 164, (2S,3S,4R,5R)-2-(3-bromoisoxazol-5-yl)-5-[6-(4-chloro-2-fluoroanilino)-9H-purin-9-yl]tetrahydrofuran-3,4-diol]	4.3	–
Cc1cc([C@H]2O[C@@H](n3cnc4c(Nc5ccc(Cl)cc5F)ncnc43)[C@H](O)[C@@H]2O)on1 [Example 144, (2R,3R,4S,5S)-2-[6-(4-chloro-2-fluoroanilino)-9H-purin-9-yl]-5-(3-methylisoxazol-5-yl)tetrahydrofuran-3,4-diol]	2.8	–
Cc1cccc(NS(=O)(=O)CCNc2ncnc3c2ncn3[C@@H]2O[C@H](c3nnc(C(C)(C)C)o3)[C@@H](O)[C@H]2O)c1 [Example 126, 2-[(9-{(2R,3R,4S,5S)-5-[5-(tert-butyl)-1,3,4-oxadiazol-2-yl]-3,4-dihydroxytetrahydrofuran-2-yl}-9H-purin-6-yl)amino]-N-(3-methylphenyl)ethanesulfonamide]	13.9	–
